# Results taken from PubChem BioAssay (NCI).
#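 The compound was tested at five concentrations on cells cultured in 96-well plates, with a 48-hour exposure period. TGI: total growth inhibition.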
# Assays:
# Test in all cases: NCI tumour cell line growth inhibition, 48 h
# [1] = test system: SK-MEL-2 melanoma
# [2] = test system: RPMI-8226 leukemia
# [3] = test system: HOP-92 NSCLC
# [4] = test system: MDA-MB-231 breast
# [5] = test system: SK-MEL-5 melanoma
# [6] = test system: KM12 colon
# [7] = test system: A549 NSCLC
# [8] = test system: NCI-H226 lung
# [9] = test system: UACC-62 melanoma
# [10] = test system: COLO 205 colon
# [11] = test system: SK-OV-3 ovarian
# [12] = test system: SN12C renal
# [13] = test system: SK-MEL-28 melanoma
# [14] = test system: NCI/ADR-RES ovarian
# [15] = test system: ACHN renal
# [16] = test system: DU-145 prostate
# [17] = test system: OVCAR-4 ovarian
# [18] = test system: SF-268 CNS
# [19] = test system: HCT-15 colon
# [20] = test system: CAKI-1 renal
SMILES,TGI [1] [µM],TGI [2] [µM],TGI [3] [µM],TGI [4] [µM],TGI [5] [µM],TGI [6] [µM],TGI [7] [µM],TGI [8] [µM],TGI [9] [µM],TGI [10] [µM],TGI [11] [µM],TGI [12] [µM],TGI [13] [µM],TGI [14] [µM],TGI [15] [µM],TGI [16] [µM],TGI [17] [µM],TGI [18] [µM],TGI [19] [µM],TGI [20] [µM]
COCCOC1=C(Cl)C(=O)c2c(O)ccc(O)c2C1=O,14.5,1.75,2.2,3.2,5.15,26.8,28.5,28.9,10.7,2.34,30.7,4.04,5.07,8.5,2.96,13.2,4.34,13,3.32,1.11
Cc1c/c(=N/NC(=O)c2ccncc2)n2nc(N)sc2n1,> 100,> 100,> 100,> 100,> 100,> 100,> 100,> 100,> 100,> 100,> 100,> 100,> 100,> 100,> 100,> 100,> 100,,> 100,> 100
NNc1ncc2c(n1)-c1ccccc1OC2,> 100,> 100,> 100,> 100,> 100,> 100,> 100,> 100,> 100,> 100,> 100,> 100,> 100,> 100,> 100,> 100,> 100,> 100,> 100,> 100
CC(=O)Oc1ccc(/C=C/C(=O)OCCOC(=O)/C=C/c2ccc(OC(C)=O)c(OC(C)=O)c2)cc1OC(C)=O,55.6,24.5,26.7,52.4,20.1,22.1,50.3,41.5,16.3,28.2,35,69,29.4,16.3,35.8,28.6,28.4,56.5,33.8,11.6
N#CCC1(c2ccc(Cl)cc2)NC(=O)c2ccccc21 (configuration not stated),> 100,> 100,> 100,> 100,> 100,> 100,> 100,> 100,> 100,> 100,> 100,> 100,> 100,> 100,> 100,> 100,> 100,> 100,> 100,> 100
O=c1c2cc(S(=O)(=O)Nc3ccc(Cl)cc3Cl)ccc2ncn1NS(=O)(=O)c1cccc2ccccc12,> 100,> 100,81.4,> 100,,> 100,> 100,> 100,> 100,> 100,> 100,> 100,> 100,> 100,> 100,> 100,> 100,> 100,> 100,85.7
CCn1c(O)c(C=Nc2ccccc2)s/c1=N/Nc1nc(-c2ccc(O)c(O)c2)cs1,> 100,46.6,> 100,> 100,> 100,> 100,> 100,> 100,> 100,> 100,> 100,> 100,> 100,> 100,> 100,> 100,> 100,> 100,> 100,> 100
CCOC(=O)C(NC(=O)c1ccccc1)(Nc1ccc(S(=O)(=O)Nc2cc(C)nc(C)n2)cc1)C(F)(F)F (configuration not stated),> 100,> 100,> 100,> 100,> 100,> 100,> 100,> 100,> 100,> 100,,> 100,> 100,> 100,> 100,> 100,> 100,> 100,> 100,> 100
COc1ccc(C(=C2C(=O)N(c3ccccc3)C(=O)C2=C(C)C)c2ccc(OC)cc2)cc1,> 42.3,> 43.7,> 31.6,> 35.4,> 51.4,> 54.4,> 62.9,> 54,> 34.2,> 33.3,> 56.1,> 38.2,20.7,> 100,> 31.7,> 58,> 29.3,> 34.3,> 32.5,42
N=c1oc2ccccc2cc1C(=O)Nc1nccs1,65.4,50.5,> 100,> 86.3,> 100,> 100,> 100,> 92.3,> 100,45.6,> 83.4,> 100,> 100,> 100,26.8,> 79.4,> 74.2,> 100,> 100,> 88.1
CC(C)NC(=O)OCc1c(COC(=O)NC(C)C)c(-c2cc[n+](COC(=O)C(C)C)cc2)n2c1CCC2,> 100,> 100,> 100,> 100,> 100,> 100,> 100,> 100,> 100,> 100,> 100,> 100,> 100,> 100,> 82.7,> 100,> 100,> 100,> 100,> 94.8
